Where a SMILES comes first, the peptide text is derived from it. Bridges are numbered along the chain shown (N, C = ends). [ ]: non-standard residue; d: D form. The star is where a group is joined. hPhe(3-Cl-4-CF3) = N[C@@H](CCc1ccc(C(F)(F)F)c(Cl)c1)C(=O)O; NPrPhe(4-CF3) = CCCN[C@@H](Cc1ccc(C(F)(F)F)cc1)C(=O)O; NMeGly(cPent) = CN[C@H](C(=O)O)C1CCCC1; NMeD = CN[C@@H](CC(=O)O)C(=O)O; Morpholide = C1CN(*)CCO1; NMeA = CN[C@@H](C)C(=O)O; Ac5c = NC1(C(=O)O)CCCC1; Aze = O=C(O)[C@@H]1CCN1; Sar = CNCC(=O)O
Columns and labels:
[1] = molecular target: GDP-bound HRAS wild-type protein (Homo sapiens, UniProt P01112); experiment: Binding to HRAS by surface plasmon resonance (SPR), Single Cycle Kinetics
GDP-bound HRAS wild-type protein, sequence (P01112 whole entry): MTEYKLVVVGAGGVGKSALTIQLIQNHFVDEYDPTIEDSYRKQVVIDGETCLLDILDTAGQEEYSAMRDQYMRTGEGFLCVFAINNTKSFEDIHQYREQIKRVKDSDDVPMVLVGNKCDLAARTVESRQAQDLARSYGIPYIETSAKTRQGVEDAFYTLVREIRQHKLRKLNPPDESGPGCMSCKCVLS

[2] = molecular target: GDP-bound NRAS wild-type protein (Homo sapiens, UniProt P01111); experiment: Binding to NRAS by surface plasmon resonance (SPR), Single Cycle Kinetics
GDP-bound NRAS wild-type protein, sequence (P01111 whole entry): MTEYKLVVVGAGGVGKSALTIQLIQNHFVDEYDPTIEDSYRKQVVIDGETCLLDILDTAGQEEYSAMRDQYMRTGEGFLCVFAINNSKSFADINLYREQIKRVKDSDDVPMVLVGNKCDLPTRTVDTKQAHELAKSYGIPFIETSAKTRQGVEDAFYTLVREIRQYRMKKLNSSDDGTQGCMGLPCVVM

[3] = KD ratio HRAS/KRAS, class symbols
[4] = KD ratio NRAS/KRAS, class symbols

Structure (SMILES) | HRAS/KRAS (ratio of KD value with respect to GDP-bound HRAS wild-type protein to KD value with respect to KRAS) [1, 3] | NRAS/KRAS (ratio of KD value with respect to GDP-bound NRAS wild-type protein to KD value with respect to KRAS) [2, 4] | other results
CC[C@H](C)[C@@H]1NC(=O)[C@H](CC(C)C)N(C)C(=O)C[C@@H](C(=O)N(C)C)N(C)C(=O)[C@H](C2CCCC2)N(C)C(=O)C2(CCCC2)NC(=O)[C@@H]2CCCN2C(=O)[C@H](CCc2ccc(C(F)(F)F)c(Cl)c2)NC(=O)CN(C)C(=O)[C@H](Cc2ccc(C)cc2)N2CC=C(C)C[C@@H](C2=O)N(C)C(=O)CN(C)C1=O [PP0620] | – | – | HRAS/KRAS (ratio of KD value with respect to GDP-bound HRAS wild-type protein to KD value with respect to KRAS) ([1]; KD ratio HRAS/KRAS, SPR): C (A compound having a KD ratio of 0.1 or more and less than 3 is denoted as C); NRAS/KRAS (ratio of KD value with respect to GDP-bound NRAS wild-type protein to KD value with respect to KRAS) ([2]; KD ratio NRAS/KRAS, SPR): C (A compound having a KD ratio of 0.1 or more and less than 3 is denoted as C)
CCO[C@@H]1C[C@H]2C(=O)NC3(CC(C)(C)C3)C(=O)N(C)[C@@H](CC(C)(C)C)C(=O)N(C)[C@H](C(=O)N(C)C)CC(=O)N(C)[C@@H](COC)C(=O)N[C@@H]([C@@H](C)CC)C(=O)N(C3CC3)CC(=O)N(C)[C@H]3C/C=C\CCN(C3=O)[C@@H](Cc3ccc(C(F)(F)F)cc3)C(=O)N(C)CC(=O)N[C@@H](CCc3ccc(Cl)c(Cl)c3)C(=O)N2C1 [PP2750] | A (a compound having 10 or more and less than 20 is denoted as A) | AA (a compound having 20 or more is denoted as AA) | –
C#CC[C@H]1C(=O)N[C@@H]([C@@H](C)CC)C(=O)N(C)CC(=O)N(C)[C@H]2C/C=C\CCN(C2=O)[C@@H](Cc2ccc(C(F)(F)F)cc2)C(=O)N(C)CC(=O)N[C@@H](CCc2ccc(Cl)c(Cl)c2)C(=O)N2C[C@H](OCC)C[C@H]2C(=O)NC2(CC(C)(C)C2)C(=O)N(C)[C@@H](C2CCCC2)C(=O)N(C)[C@H](C(=O)N(C)CC)CC(=O)N1C [PP2843] | A (a compound having 10 or more and less than 20 is denoted as A) | A (a compound having 10 or more and less than 20 is denoted as A) | –
CCCN1C(=O)[C@@H]2CCN2C(=O)[C@H](C)N(C)C(=O)[C@H]([C@@H](C)CC)NC(=O)[C@H](CC(C)C)NC(=O)C[C@@H](C(=O)N2CCOCC2)N(C)C(=O)[C@H](C2CCCC2)N(C)C(=O)C2(CCCC2)NC(=O)[C@@H]2CCCN2C(=O)[C@H](CCc2ccc(C(F)(F)F)c(Cl)c2)NC(=O)CN(C)C(=O)[C@@H]1Cc1ccc(C(F)(F)F)cc1 [PP0154] (LI[NMeA][Aze][NPrPhe(4-CF3)][Sar][hPhe(3-Cl-4-CF3)]P[Ac5c][NMeGly(cPent)][NMeD]-Morpholide; lactam N-11) | – | – | HRAS/KRAS (ratio of KD for GDP-bound HRAS wild-type to KD for KRAS) ([1]; KD ratio HRAS/KRAS, SPR): B (a compound having 3 or more and less than 10 is denoted as B); NRAS/KRAS (ratio of KD for GDP-bound NRAS wild-type to KD for KRAS) ([2]; KD ratio NRAS/KRAS, SPR): C (A compound having a KD ratio of 0.1 or more and less than 3 is denoted as C)
CCO[C@@H]1C[C@H]2C(=O)NC3(CC(F)(F)C3)C(=O)N(C)[C@@H](C3CCCC3)C(=O)N3CCC[C@@H]3CC(=O)N(C)[C@@H](CC)C(=O)N[C@@H]([C@@H](C)CC)C(=O)N(C)CC(=O)N(C)[C@H]3C/C=C\CCN(C3=O)[C@@H](Cc3ccc(C(F)(F)F)cc3)C(=O)N(C)CC(=O)N[C@@H](CCc3cc(F)c(C(F)(F)F)c(F)c3)C(=O)N2C1 [PP1609] | – | – | HRAS/KRAS (ratio of KD value for HRAS to KD value for KRAS) ([1]; KD ratio, GDP-bound HRAS wild-type vs GDP-bound KRAS wild-type, SPR): A (a compound having 10 or more and less than 20 is denoted as A); NRAS/KRAS (ratio of KD value for NRAS to KD value for KRAS) ([2]; KD ratio, GDP-bound NRAS wild-type vs GDP-bound KRAS wild-type, SPR): A (a compound having 10 or more and less than 20 is denoted as A)
CCC[C@H]1C(=O)N[C@@H]([C@@H](C)CC)C(=O)N(C2CC2)CC(=O)N(C)[C@H]2C/C=C\CCN(C2=O)[C@@H](Cc2ccc(C(F)(F)F)cc2)C(=O)N(C)CC(=O)N[C@@H](CCc2ccc(Cl)c(Cl)c2)C(=O)N2C[C@H](OCC)C[C@H]2C(=O)NC2(CC(C)(C)C2)C(=O)N(C)[C@@H](CC2CC2)C(=O)N(C)[C@H](C(=O)N(C)C)CC(=O)N1C [PP2817] | A (a compound having 10 or more and less than 20 is denoted as A) | A (a compound having 10 or more and less than 20 is denoted as A) | –

— patent US20250230193A1, “CYCLIC COMPOUND HAVING SELECTIVE KRAS INHIBITORY EFFECT ON HRAS AND NRAS” (CHUGAI SEIYAKU KABUSHIKI KAISHA, priority 2022, published 2025)
